In patent US12534425B2, “Phenalkylamines and methods of treating mood disorders” (GILGAMESH PHARMACEUTICALS, INC., priority 2020, dated 2026):

Assays:
[1] = Metabolic stability in cynomolgus monkey liver microsomes (CLM); conditions: male, pooled liver microsomes, pH 7.4
5-HT2A receptor [2] = target: T1, 5-HT2A receptor (Homo sapiens (Human), UniProt P28223); assay: FLIPR Ca2+ flux agonist assay at 5-HT2A; type: cell-based
Experimental: (§1) The functional activity of Compound 1 at several serotonin (5-HT) receptor subtypes (5-HT2A, 5-HT2B, and 5-HT1A) was determined in Ca^2+ flux assays, with the results summarized in Table 3.
(§2) Functional Assays at 5-HT2A, 5-HT2B, and 5-HT1A Receptors. Agonist activity at 5-HT2A, 5-HT2B, and 5-HT1A receptors was determined using a FLIPR Ca^2+ flux assay at WuXi AppTec (Hong Kong) Limited according to their standard protocols. Briefly, stably transfected cells expressing the receptor of interest (HEK293 for 5-HT2A and 5-HT2B; CHO cells for 5-HT1A) were grown and plated in a 384 well plate and incubated at 37° C. and 5% CO2 overnight. A solution of 250 mM probenecid in 1 mL FLIPR assay buffer was prepared fresh. This was combined with a fluorescent dye (Fluo-4 Direct™) to make a final assay concentration of 2.5 mM. Compounds were diluted 1:3.16 for 10 points and 750 nL was added to a 384 well compound plate using ECHO along with 30 μL assay buffer. The fluorescent dye was then added to the assay plate along with assay buffer to a final volume of 40 μL. The cell plate was incubated for 50 min at 37° C. and 5% CO2 and placed into the FLIPR Tetra along with the compound plate. 10 μL of references and compounds were then transferred from the compound plate into the cell plate and the fluorescent signal was read.

5-HT1A receptor = 5-HT1A receptor (Homo sapiens (Human), UniProt P08908); assay: FLIPR Ca2+ flux agonist assay at 5-HT1A; type: cell-based
Experimental: as §1, §2

5-HT2A receptor [3] = target: T1, 5-HT2A receptor; assay: 5-HT2A receptor radioligand binding ([3H]ketanserin); conditions: for Ki: 1 nM [3H]ketanserin, HEK293 stable cell line
Experimental: Methods. Affinity of the test compounds for the 5-HT2A receptor was determined in radioligand binding experiments with [^3H]ketanserin by WuXi AppTec (Hong Kong) Limited, using methods adapted from the literature and under conditions described in Table 2.

5-HT2B receptor = 5-HT2B receptor (Homo sapiens (Human), UniProt P41595); assay: FLIPR Ca2+ flux agonist assay at 5-HT2B; type: cell-based
Experimental: as §1, §2

C57BL/6 mice = assay: Head twitch response (HTR) in mice; type: in vivo; conditions: for Average HTR (SEM): counted for 20 min; for ED50: Mus musculus, sc, Gaussian dose-response fit, read-out: HTR ED50 (95% CI); for maximal HTR effect: s.c., maximal effect over doses
Experimental: Animals. Adult male C57BL/6 mice, aged 8 weeks (body weight 20-25 g) were used in these experiments. Animals were housed under controlled temperatures and 12-hour light/dark cycles (lights on between 07:00-19:00 h), with ad libitum food and water. All efforts were made to minimize suffering.
Drugs and Drug Administration. Compound 1 was synthesized as described above. […] All compounds were used as the HCl salts, dissolved in a vehicle consisting of normal saline, and administered subcutaneously (s.c.) in a volume of 10 mL/kg. […] Group size was N=6 animals/group.
Procedure. Mice were administered one dose of a test drug (or vehicle) s.c. and immediately placed into a small open field for behavioral observation.
Statistical Analysis. The data points shown in Table 4 are the mean±standard error of the mean (SEM). Dose-response curves were fit and ED50s calculated using the Gaussian 2020 function in GraphPad Prism 9.

[4] = Ca2+ flux, HEK293 cells, max dose

Sequence of 5-HT2B receptor (P41595 whole entry): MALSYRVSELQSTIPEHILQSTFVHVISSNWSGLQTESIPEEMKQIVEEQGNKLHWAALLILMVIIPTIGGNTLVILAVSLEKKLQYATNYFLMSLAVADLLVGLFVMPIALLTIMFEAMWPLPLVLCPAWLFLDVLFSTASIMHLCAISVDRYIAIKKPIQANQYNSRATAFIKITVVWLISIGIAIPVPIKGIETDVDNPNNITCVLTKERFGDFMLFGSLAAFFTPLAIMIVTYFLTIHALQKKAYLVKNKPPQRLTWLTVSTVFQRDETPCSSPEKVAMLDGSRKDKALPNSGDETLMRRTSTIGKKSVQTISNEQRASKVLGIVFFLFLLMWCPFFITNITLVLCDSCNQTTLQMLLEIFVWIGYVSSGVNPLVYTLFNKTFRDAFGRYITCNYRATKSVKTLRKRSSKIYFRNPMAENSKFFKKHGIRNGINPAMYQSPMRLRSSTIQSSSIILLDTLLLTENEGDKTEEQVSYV

SMILES	half-life at 1 μM [1] [h]	microsomal CLint at 1 μM [1] [µL/min/mg]	EC50 (5-HT2A receptor [2]) [nM]	selectivity among 5-HT receptors (in words) (5-HT2A receptor [2]; 5-HT2A over 5-HT2B and 5-HT1A, Ca2+ flux)	agonist activity at the 5-HT2A receptor (in words) (5-HT2A receptor [2]; Ca2+ flux)	5-HT2A % Act @ Max Dose (5-HT2A receptor [2]; [4]) [%]	EC50 (5-HT1A receptor) [nM]	5-HT1A % Act @ Max Dose (5-HT1A receptor; Ca2+ flux, CHO cells, max dose) [%]	Ki (5-HT2A receptor [3]) [nM]	binding affinity at the 5-HT2A receptor (in words) (5-HT2A receptor [3]; compared to closely related compounds)	EC50 (5-HT2B receptor) [nM]	5-HT2B % Act @ Max Dose (5-HT2B receptor; [4]) [%]	Average HTR (SEM) (C57BL/6 mice; 0.1 mg/kg s.c.)	Average HTR (SEM) (C57BL/6 mice; 0.316 mg/kg s.c.)	Average HTR (SEM) (C57BL/6 mice; 1 mg/kg s.c.)	Average HTR (SEM) (C57BL/6 mice; 3.16 mg/kg s.c.)	Average HTR (SEM) (C57BL/6 mice; 10 mg/kg s.c.)	ED50 (C57BL/6 mice) [mg/kg]	maximal HTR effect (C57BL/6 mice) [head twitches/20 min]	Average HTR (SEM) (C57BL/6 mice; 31.6 mg/kg s.c.)
C=CCc1cc(OC)c(CCN)cc1OC [Compound 1, 2-(4-allyl-2,5-dimethoxyphenyl)ethan-1-amine]	0.705	32.8	2.15	selective for the 5-HT2A receptor over the 5-HT2B and 5-HT1A receptors	potent and highly efficacious agonist	110.99	> 100000	13.25	90.4	reduced binding affinity	77.7	74.87	8.8 (0.79)	13.3 (0.49)	23.0 (1.21)	28.8 (1.58)	24.3 (2.04)	0.28	28.8	–
COc1cc(CCN)c(OC)cc1Br [Compound 2C-B]	1.25	18.4	–	–	–	–	–	–	–	–	–	–	–	–	–	–	–	–	–	–
CCc1cc(OC)c(CCN)cc1OC [Compound 2C-E]	1.31	17.6	–	–	–	–	–	–	16.7	–	–	–	–	–	–	–	–	–	–	–
COc1cc(C(F)(F)F)c(OC)cc1CCN [Compound 2C-TFM, 2,5-dimethoxy-4-(trifluoromethyl)phenethylamine]	–	–	–	–	–	–	–	–	15.8	–	–	–	–	6.5 (0.89)	19.2 (2.47)	19.2 (2.37)	17.2 (1.62)	0.43	19.2	9.3 (1.12)
COc1cc(CC(C)N)c(OC)cc1I (stereo not drawn) [DOI, 4-iodo-2,5-dimethoxyamphetamine]	–	–	–	–	–	–	–	–	–	–	–	–	5.5 (0.85)	13.0 (2.07)	29.3 (2.29)	35.6 (3.37)	22.7 (1.52)	0.43	35.6	–
